Square brackets hold non-standard residues; d marks the D form. Peptide text beside a SMILES is read from it. * marks the point of attachment. Nle = CCCC[C@H](N)C(=O)O; Cbz = O=C(OCc1ccccc1)*
Columns and labels:
Type in all cases: cell-based, human
[1] = system: RJ002L melanoma cells; test: Bortezomib in RJ002L melanoma cells: sub-G0 DNA content by FACS and kinetic analysis
Protocol: To assess the effect of proteasome inhibitors on the cell lines, the cells were grown in suitable culture media as described above. Highly proliferating cells (i.e., cells that had reached approximately 30% confluency) were exposed to the inhibitors as described below. The culture media was replenished with media containing proteasome inhibitors at various concentrations and the cells were incubated for 24 hours prior to harvesting the cells for further analysis.
Following treatment with the proteasome inhibitors, the melanoma and melanocyte cell cultures were assayed for apoptotic cells using the APO TARGET Annexin V FITC staining kit (Biosource, Camarillo, Calif.) according to the manufacturer's instructions followed by flow cytometric analysis using FACScaliber (Becton Dickinson, Palo Alto, Calif.) as described in Qin, J. et al., 2001, Nat Med 7: 385-386. In some cases, cell cycle and apoptosis analysis was measured using propidium iodide staining and flow cytometry as described. Cells with DNA content less than the G0 amount of untreated cells were considered apoptotic. For cell analysis, DNA histograms were analyzed using MultiCycle for Windows (Phoenix Flow Systems, San Diego, Calif.) as described in Denning, M. F. et al., 1998, J Biol Chem 273: 29995-30002.
The ability of bortezomib to induce apoptosis in RJ002L cells was assayed by kinetic analysis. RJ002L cells were incubated with 1.0 μM bortezomib for 24 hours. At various time points during the 24 hours, the cells were assayed for apoptosis using APO TARGET Annexin V-FITC staining kits (Biosource, Camerillo, Calif.) according to manufacturer's instructions. The relative percentage of cells undergoing apoptosis was quantified by flow cytometric analysis using FACSCaliber (Becton Dickinson, Palo Alto, Calif.) as described in Qin J et al., 2004, Mol Cancer Ther 3:895-902.

[2] = system: NOXA; test: Western blot of pro-survival and pro-apoptotic proteins in melanoma cells; settings: 10 μM
Protocol: To assess the effect of z-Leu-Leu-Nle-CHO on pro-apoptotic proteins, RJ002L pulmonary metastases melanoma cells were grown in RPMI supplemented with 10% FBS. Highly proliferating cells (i.e., cells that had reached approximately 30% confluency) were exposed to z-Leu-Leu-Nle-CHO by replenishing the culture media with media containing z-Leu-Leu-Nle-CHO (10 μM) (experimental group) or media without z-Leu-Leu-Nle-CHO (control group) and the cells were incubated for a specified period of time prior to harvesting the cells for further analysis.
Western blot analyses following z-Leu-Leu-Nle-CHO and control treatment of RJ002L melanoma cells were performed to determine the effect of z-Leu-Leu-Nle-CHO on pro-survival and pro-apoptotic proteins. Whole cell extracts were prepared and analyzed as described by Denning, M. F. et al., 1998, J Biol Chem 273: 29995-30002, 1998. The enriched mitochondria pellet and mitochondria-free cytosol of melanoma cells were prepared with the APO ALERT cell fraction kit (Clontech Laboratories, Inc. Palo Alto, Calif.) according to the manufacturer's instructions. For Western blot analysis, equal amounts of protein extracted from each sample (20-30 μg) were loaded into pre-cast 7% NuPAGE Tris-acetate gels or 4-12% NuPAGE Bis-tris gels (Invitrogen). Proteins were separated by SDS-PAGE and transferred to polyvinylidene difluoride membranes (Bio-Rad, Hercules, Calif.) using Invitrogen's buffering system. The indicated primary antibodies were incubated for indicated period of time, washed, and visualized by incubation with horseradish peroxidase-conjugated secondary antibodies and chemiluminescent reagents (Roche Diagnostics Corporation, Indianapolis, Ind.). Antibodies used were as follows: From Santa Cruz Biotechnology: Bcl-2 (SC-7382), BCl-xL (SC-634), Mcl-1 (SC-819), survivin (SC-10811), Bax (SC-493), Bak (SC-832), Bim (SC-11425), PUMA (SC-19187), p53 (SC-126), and GADD45 (SC-796); From Cell Signaling: Bid (#2002), and cleaved caspase 9 (9501); NOXA (OP180—Oncogene Research Products), Apaf-1 (559683-BD Bioscience), Smac/Diablo (IMG-248-Imgenex), cytochrome C (part of kit—Apo Alert™ cell fraction kit—Clontech Laboratories, Inc.—Palo Alto, Calif.), PARP (Pharmingen, San Diego, Calif.) and β-actin (Sigma Chemical Co., St. Louis, Mo.). Secondary antibodies anti-goat, anti-mouse, anti-rabbit and anti-rat (IgG-HRP) were purchased from Vector Laboratories (Burlingame, Calif.), Santa Cruz Biotechnology and Amersham Biosciences.
To determine if p53 status influences induction of NOXA, NOXA induction in z-Leu-Leu-Nle-CHO-treated melanoma cell lines (10 μM) containing p53 mutations (i.e. C8161, SK-MeI-28, MUM2B) were examined using Western blot analysis as described above and compared to that of Western blot results from z-Leu-Leu-Nle-CHO-treated melanoma cell lines (10 μM) having wild-type p53 (RJ002L, SK-MeI-100). […] In contrast, C8161, which carries a R196Stop mutation in only one allele, has p53 expression similar to that observed in wild-type cell lines. […] NOXA induction occurred earlier in SK-MeI-100 cells than in the other tested cell lines (FIG. 2C). Apaf-1 levels were not increased in response to z-Leu-Leu-Nle-CHO (data not shown).

[3] = system: T47D:C42 breast cancer cells; test: z-Leu-Leu-Nle-CHO plus Paclitaxel, growth inhibition of T47D:C42 cells; settings: 0-0.8 μM with Paclitaxel, 48 h
Protocol: Three different types of breast cancer cells were contacted with varying concentrations of z-Leu-Leu-Nle-CHO (0-0.8 μM) and the mitotic poison Paclitaxel (0.01-1 μM). MDA-MB231 cells were obtained from ATCC (Rockville, Md.). T47D:C42 and T47D:A18 cells were a kind gift of Debra Tonetti (University of Illinois-Chicago). MDA-MB231 cells were cultured in DMEM medium with 10% FBS. T47D:C42 and T47D:A18 cells were propagated in RPMI 1640 with 10% FBS, 100 μM non-essential amino acid and 6 ng/ml insulin. Gamma-secretase inhibitor z-Leu-Leu-Nle-CHO (Calbiochem 565750) was dissolved in DMSO, aliquoted and stored at −80° C. Paclitaxel (Sigma, St. Louis Mo.) was dissolved in DMSO, aliquoted and stored at −80° C.
To determine whether z-Leu-Leu-Nle-CHO treatment potentiates the effect of Paclitaxel on human breast cancer cells, MDA-MB231, T47D:C42 and T47D:A18 cells were treated for 48 h with 0-0.8 μM z-Leu-Leu-Nle-CHO and various concentrations of Paclitaxel (0.008-1 μM) Following the z-Leu-Leu-Nle-CHO and Paclitaxel treatment, the cells were tested for growth inhibition as described above in Example 13.

SMILES: CC(C)C[C@H](NC(=O)[C@H](Cc1ccccc1)NC(=O)c1cnccn1)B(O)O [bortezomib, N-(2-pyrazine)carbonyl-L-phenylalanine-L-leucine boronic acid]
- cells with sub-G0 DNA content by FACS analysis ([1]; 0.01 μM, 24 hours): 2%
- apoptotic cells ([1]; 0.1 μM, 24 hours): 20%
- apoptotic cells ([1]; 1 μM or 10 μM, 24 hours): 29-30%
- kinetic analysis of apoptosis ([1]; 1.0 μM, up to 24 hours): prominent apoptosis was detected at 18- and 24-hr time points
- increase in apoptotic cells, 0.1 μM versus 0.01 μM ([1]; 24 hours): 10 fold

SMILES: CCCC[C@@H](C=O)NC(=O)[C@H](CC(C)C)NC(=O)[C@H](CC(C)C)NC(=O)OCc1ccccc1 [z-Leu-Leu-Nle-CHO, N-benzyloxycarbonyl-leucyl-leucyl-norleucinal] (Cbz-Leu-Leu-[Nle]-aldehyde)
- induction of pro-apoptotic proteins ([2]; RJ002L): induced expression of Bak, Bim, and NOXA
- time course of NOXA induction ([2]; RJ002L): detectable as early as 1 hr and was massive by 6-18 hrs
- NOXA induction ([2]; all tested melanoma cell lines, regardless of p53 mutation status): induced NOXA in all tested melanoma cell lines
- effect on Paclitaxel cell growth inhibition [3]: potentiated the effects of Paclitaxel on cell growth inhibition
